Assays:
[1] = system: HCT116-cell-bearing Balb-c/nude mice; assay: Histopathological analysis (H&E) of tumors and organs; format: in vivo; settings: Day 16; control: livers, lungs, and spleens
Description: The tumors and livers harvested from mice were preserved in 4% formalin overnight and the tumor and livers were embedded in paraffin to form paraffin tissue blocks. Afterwards, the tissues were sliced into 5-μm thick sections using a microtome (Leica RM 2145, Leica, Wetzlar, Germany). These sections were stained with H & E. The histopathological analysis was performed using an optical microscope (Optiphot-2, Nikon, Tokyo, Japan).

[2] = Hepatic and renal functional evaluation (serum); format: in vivo, mice; settings: after 16 d
Source text: To investigate the efficacy of tumor inhibition, HCT116-cell-bearing 4-week-old female Balb-c/nude mice whose tumor sizes were up to 500 mm^3 were separated into 3 groups and each group contained 5 mice. […] The tumor size and weight were monitored every 2 to 3 days for 16-days post-injection. At day 16 post-injection, the mice were all euthanized, and their blood was collected. Meanwhile, the tumor and liver of mice were collected. The tumors were photographed after excluding the extreme ones. The blood samples were centrifugated under 3000 RPM for 10 min to obtain the serum samples for hepatic and renal functional evaluations. The hepatic function was assessed by the aspartate aminotransferase (AST) and alanine aminotransferase (ALT) values; the function of the kidneys was evaluated with the index of blood urea nitrogen (BUN) and creatinine.

NC1CCCCC1N.[Cl][Pt][Cl] (centres unmarked) [DACHPt, dichloro(1,2-diaminocyclohexane)platinum(II)]
tumor metastasis in organs (H&E sections) [1]: only observed in lungs | hepatic functional index ALT [2]: 40 ± 3 U/L | hepatic functional index AST [2]: 134 ± 29 U/L | renal functional index BUN [2]: 32.9 ± 9.3 mg/dL | renal functional index Creatinine [2]: 0.44 ± 0.05 mg/dL
